In turn, `CCCCCCCSc1nn2c(=O)c(C)c(O)nc2s1` registered a melting point of 141 to 143 °C.

Turning to `CC(C)C1C(=O)C(C)(C)C(=O)N1c1ccc(C#N)c(Cl)c1` (centres undefined), the melting point lay within 116 to 117 °C.

Take `[N-]=[N+]=C1C(=O)c2ccccc2-c2ccccc21`: the melting point is 107 to 109 °C.

Regarding `COc1ccc2c3c(c(=O)oc2c1)CN(Cc1cccnc1)CC3`, the melting point was 107 to 110 °C.

For the compound `CN(C)c1ccc2nc(N)c(C#N)c(O)c2c1`, the melting point turned out to be 360 °C.

Consider `CCCCC(C(=O)OC)c1cccc(C(=O)c2cc3cc(C(=O)OC)sc3s2)c1` (centres undefined), for which the melting point turned out to be 95 °C.

Compound `CC(C)(C)c1cc(/C=C/C(=O)CC(=O)/C=C/c2cc(C(C)(C)C)c(O)c(C(C)(C)C)c2)cc(C(C)(C)C)c1O` yielded a melting point of 192 to 196 °C.

For `COc1cccc2cc(CNCCN3C(=O)CC4(CCCC4)CC3=O)oc12`, the melting point fell in the range of 156 to 158 °C.

Turning to `O=C1COC2(CCN(CC(=O)c3ccc(F)cc3)CC2)CN1`, the melting point lay within 206 to 210 °C.

With `CCOc1ccc(S(=O)(=O)N(CCO)c2ccccc2/C=C/c2ccncc2)cc1`, the melting point is 167 to 169 °C.

Compound `CC(C)(Cc1ccccc1)C(NC(=O)c1ccncc1)Nc1c(Nc2cccnc2)c(=O)c1=O` (centres undefined) yielded a melting point of 251 to 254 °C.

Take `COc1cccc2c1CC(C(=O)O)N2C(=O)OC(C)(C)C` (centres undefined): the melting point was 148 to 150 °C.

On to `COc1nc(C2CC2)nc(OC(C)C)c1C=O`, for which the melting point is 46 to 47 °C.

`CC1(C2CCCC2)Cc2cc(NCCO)c(Cl)c(Cl)c2C1=O` (centres undefined) showed a melting point of 135 to 136 °C.

`COc1ccc2cc(C(=O)Cl)oc2c1` showed a melting point of 96 to 99 °C.

As to `O=C1NC(=O)c2ccc(Br)cc2/C1=C/NCCc1c[nH]c2ccccc12`, the melting point is 278 to 280 °C.

Regarding `COCc1ccn2nc(S(=O)(=O)Cl)nc2n1`, the melting point was determined as 125 °C.

In the case of `CCCc1c(C(=O)C(C)C)c2ccc(C(N)=O)cc2n1Cc1ccc(Cl)cc1`, the melting point lay within 183 to 184 °C.

In turn, `ClCCCOc1cccc2cccnc12` came in with a melting point of 69 to 71 °C.

For `O=C(O)Cc1ccc(N(C(=O)C(COC2CCCCO2)NS(=O)(=O)c2ccc3ccccc3c2)c2ccc(CC(=O)O)cc2)cc1` (racemic), the melting point lay within 130 to 140 °C.

The compound `CC(CO)(CO)NS(=O)(=O)c1cccc(C#Cc2cnn3c(C(F)F)cc(-c4ccc(C(F)(F)F)cc4)nc23)c1` returned a melting point of 172 to 174 °C.

`O=C(COc1ccc(CN2CCOCC2)cc1)N1CCN(c2ccc(N3C[C@H](CNC(=S)C4CC4)OC3=O)cc2F)CC1` showed a melting point of 138 to 141 °C.

`O=C(O)C(Sc1ccc(Cl)cc1)c1ccc(Oc2ccccc2)cc1` (centres undefined) showed a melting point of 121 to 125 °C.

In turn, `CC(=O)SCCC(=O)N1CCC=C1C(=O)O` registered a melting point of 89 to 91 °C.

Compound `O=C(O)Cn1c(-c2cccc(Cl)c2)nc2cccnc21` had a melting point of 214 to 216 °C.

In the case of `Cc1ccc(-c2cncc(OC3SCC(O)C(O)C3O)c2)cc1F` (centres undefined), the melting point is 213 °C.

The compound `O=C(O)c1ccc(NCCOc2ccccc2)cc1` registered a melting point of 172 to 175 °C.

`Cc1cc2c(c3ccc(=O)[nH]c13)OCC2C=O` (centres undefined) returned a melting point of 230 to 232 °C.

`CC(C)Cn1cnc2c(N)nc3ccc(-c4ccsc4)cc3c21` had a melting point of 235 to 236 °C.

`CCc1cc(Cl)c(C)c(Oc2c(C)cc(C)cc2C)n1` yielded a melting point of 42 to 44 °C.

`CCNc1nc(SC)ncc1CO` returned a melting point of 152 to 156 °C.

Consider `CC(C)(C)c1ccccc1-n1c(=O)[nH]c2c(C(N)=O)nc(-c3cccc(O)c3)nc21`, for which the melting point fell in the range of 294 to 297 °C.

Compound `CC1OC(=O)N(Cc2ccccc2[N+](=O)[O-])C1=O` (centres undefined) came in with a melting point of 114 °C.

As to `Cc1oc(-c2ccccc2)nc1COc1ccc(CC(=O)O)cc1`, the melting point was in the range of 181 to 183 °C.

On to `COc1ccc(C2(C)C(=O)Nc3cc(OC)cc(Cl)c3C2=O)cc1` (centres undefined), for which the melting point was 222 to 224 °C.

`CC(=O)Nc1ccnn1-c1c(F)cc(C(F)(F)F)cc1Cl` showed a melting point of 144 to 146 °C.

In the case of `NC(=O)c1c(OCc2c(F)cc(Br)cc2F)nsc1NC(=O)NCCCCN1CCCC1`, the melting point was 208 °C.

With `CC(C)(C)Oc1nc2cc(F)c([N+](=O)[O-])cc2nc1Cl`, the melting point was in the range of 141 to 143 °C.

Compound `Cc1[nH]c(=O)ccc1-c1ccc(O)c(N)c1` yielded a melting point of 279 to 283 °C.

As for `CC(=O)C(=Cc1cccc([N+](=O)[O-])c1)P1(=O)OCCCO1`, the melting point was 144 to 146 °C.

Turning to `CC(C)Oc1ccc(-n2c(C(=O)NCCNC(=O)OC(C)(C)C)c(Cl)c3cc(Oc4ccc(C(F)(F)F)cn4)ccc32)cc1`, the melting point lay in the range of 184 to 185 °C.

Compound `CC(C)(C)OC(=O)NCCNC(=O)c1cccc2c1c(C(=O)C(=O)NC1=CC(=O)OC1)cn2Cc1ccc(Cl)cc1` registered a melting point of 218 to 219 °C.

`Cc1cnc2c(c1)CCCC2O` (centres undefined) returned a melting point of 58 °C.

Compound `COC(=O)CCc1ccc(S(=O)(=O)c2ccc(NC(=O)c3ccc(Cl)c(Cl)c3)cn2)cc1` gave a melting point of 165 to 166 °C.

As for `O=c1c(CCCc2cncnc2)cc2cccnc2n1-c1cccc([N+](=O)[O-])c1`, the melting point lay in the range of 175 to 176 °C.

Regarding `COc1cc2c(c3c1OC(C)(C)C3)C(c1ccc(=O)n(-c3ccc4ccccc4n3)c1)=NC(C)(C)C2`, the melting point was in the range of 191 to 192 °C.

The compound `CCOc1cc2c(cc1OCC)C(C(S)(C#N)CCC(=O)O)=NCC2` (centres undefined) yielded a melting point of 106 to 108 °C.

With `Nc1ncc(CCc2ccccc2)cc1[N+](=O)[O-]`, the melting point was 145 to 146 °C.

For `CC(C)N(O)C(=O)Nc1ccc(S(C)(=O)=O)cc1`, the melting point fell in the range of 163 to 164 °C.

As to `Cc1ccc(N2CCOCC2)c(N=C2NCCN2CCO)c1`, the melting point was in the range of 135 to 136 °C.

`Cc1nc(NC(=O)c2ccccc2)sc1C(=O)NNC(=O)c1ccccc1` displayed a melting point of 258 to 260 °C.

`Nc1ccc(NC2CCCCCCC2)c([N+](=O)[O-])c1` yielded a melting point of 161 °C.

`CCOC(=O)c1cnc2ccc(C(=O)c3ccc(Cl)cc3)cc2c1O` showed a melting point greater than 300 °C.

As to `O=C1CCN(C(=S)Nc2ccc(Cl)cc2)N1c1ccccc1`, the melting point was in the range of 136 to 139 °C.

The compound `COc1ccc(Cn2cc3nc(Cl)nc(Cl)c3n2)cc1` yielded a melting point of 108 to 109 °C.

Consider `CN(CCN=C(NC#N)NCCSCc1csc(NC(=N)N)n1)CCC(c1ccccc1)c1ccccn1` (centres undefined), for which the melting point lay in the range of 115 to 116 °C.

The compound `Cn1nnnc1NCC(O)CCOc1cccc(CN2CCCCC2)c1` (centres undefined) registered a melting point of 138 to 139 °C.

In turn, `COC(=O)c1ccc(OCC2CC(=O)N(c3ccc(OCC(C)(C)O)cc3)C2)cc1` (centres undefined) returned a melting point of 89.5 to 90.5 °C.

`CCOC(=O)c1c(Br)cnn1-c1c(Cl)cccc1Cl`: the melting point was 62 to 65 °C.

`O=C1CCC(CCO)(c2ccc(F)c(F)c2)CN1Cc1cc(C(F)(F)F)cc(C(F)(F)F)c1` (centres undefined): the melting point was 120 °C.

In the case of `CCC1=Nc2cc(Cl)ccc2CC(c2sccc2C)N1C` (centres undefined), the melting point lay in the range of 94 to 96 °C.

`CC(C)(O)COC(=O)N1CCN(C#N)CC1` came in with a melting point of 90 to 92 °C.

Take `N#Cc1ccc(-c2ccc(C#N)c(Cn3cncn3)c2)cc1`: the melting point lay in the range of 222 to 223 °C.

`CC(=O)ON(C(=O)NN(C)C)C1c2ccccc2Oc2ccccc21` gave a melting point of 120 to 121 °C.

`O=C(Nc1cccc(-c2ccnc3c(C(=O)c4cccs4)cnn23)c1)OCCCN1CCOCC1` showed a melting point of 198 to 199 °C.

Compound `COc1ccc(C(=O)c2ccc(-c3ccc(Cl)cc3)nc2)cc1OC` returned a melting point of 168 to 170 °C.

For `Cc1c(O)ccc2c1C(C)(C)CC2`, the melting point fell in the range of 92 to 93 °C.

The compound `O=C1CN=C(c2ccccc2)c2ccccc2N1` came in with a melting point of 180 to 181 °C.

The compound `NC(=O)c1c[nH]c2ccc([N+](=O)[O-])cc12` displayed a melting point of 284 to 288 °C.

`Cn1nnnc1SCCCC(=O)c1ccco1` displayed a melting point of 41 to 42 °C.

`O=C1c2nccc(Cl)c2-c2nc3ccccc3c3ccnc1c23` came in with a melting point greater than 260 °C.

The compound `Cc1sc(N)c(C(=O)c2ccc(Cl)cc2)c1CN(C)Cc1ccccc1` returned a melting point of 114 to 116 °C.

In turn, `COc1cc(Cl)nc(NC(=O)NS(=O)(=O)c2ccccc2-c2nnnn2C)n1` had a melting point of 225 to 227 °C.

`CCc1nc2c(C)cc(C)nc2n1Cc1ccc(C(c2ccccc2C)C(C(=O)O)C(=O)O)cc1` (centres undefined) returned a melting point of 160 to 161 °C.

On to `FC(F)C(F)(F)Sc1nc(-c2ccccc2)c(-c2ccccc2)n1C1CCCO1` (centres undefined), for which the melting point lay within 145 to 146 °C.

For the compound `CCCCCCCCOc1ccc2nc(C(=O)NCC(=O)O)c(O)cc2c1`, the melting point lay within 153 to 155 °C.

Consider `O=C(O)c1csc(-c2ncccc2O)n1`, for which the melting point is greater than 300 °C.

The compound `COc1cc2oc(=O)c3c(c2cc1OC)CCN(CCN1CC2CCC1CC2)C3` displayed a melting point of 133 to 135 °C.

In turn, `COc1cc(CCCn2ccnc2)ccc1OCc1coc(-c2ccc(C)s2)n1` displayed a melting point of 92 to 93 °C.

`N#CCCC1(C(N)=O)c2ccccc2-c2ccccc21`: the melting point was 148 to 152 °C.

Turning to `COc1cc(Nc2c(C#N)cnc3cc(-c4coc(CN5CCN(C)CC5)c4)c(OC)cc23)c(Cl)cc1Cl`, the melting point was 179 to 181 °C.

`O=C(O)CCCc1cc2nc(Cl)ccc2n1S(=O)(=O)c1ccc2c(c1)OCCO2` displayed a melting point of 166 °C.

Compound `CCC1(C)Cc2ccc(C)cc2C1=O` (centres undefined) registered a melting point of 25.5 to 27 °C.

Compound `Cc1cccc(Sc2nc(C#N)c(C#N)nc2Cl)c1` showed a melting point of 117 to 119 °C.

For `COc1cc(Oc2ccc(C(=O)N(C(C)C)C3CCCCC3)cc2)cc(OC)c1OC`, the melting point is 124 °C.

`Cc1cncc(/C=C/c2cccc(F)c2)n1` yielded a melting point of 43 to 44 °C.

For the compound `Nc1nc(-c2ccc(CCCCCl)s2)cs1`, the melting point fell in the range of 99 to 100 °C.

For the compound `CON=C(c1ccc2c(c1)sc(=O)n2CCOc1ccc(CC(OCC(F)(F)F)C(=O)O)cc1)C1CC1` (centres undefined), the melting point lay within 33 to 34 °C.

On to `CCCCCCCCCCCCCCCCCCOc1cc(OCCCOc2ccc(C(C)(C)C)cc2)cc(N(CC(=O)O)CC(=O)O)c1`, for which the melting point lay within 99 to 101 °C.
